From patent US12459891B2, “1-[1-(4-benzyloxy-3,5-difluoro-benzoyl)-4-fluoro-pyrrolidine-2-carbonyl]-pyrrolidine-2-carbonitrile” (ACCURE THERAPEUTICS, S.L., priority 2020, dated 2025) come the findings set out here.

This assay has as its target T1, human prolyl oligopeptidase (Homo sapiens, UniProt P48147).
T1 construct: His tail; made in house; host or cells: E. coli BL21
T1 sequence (P48147 1-710): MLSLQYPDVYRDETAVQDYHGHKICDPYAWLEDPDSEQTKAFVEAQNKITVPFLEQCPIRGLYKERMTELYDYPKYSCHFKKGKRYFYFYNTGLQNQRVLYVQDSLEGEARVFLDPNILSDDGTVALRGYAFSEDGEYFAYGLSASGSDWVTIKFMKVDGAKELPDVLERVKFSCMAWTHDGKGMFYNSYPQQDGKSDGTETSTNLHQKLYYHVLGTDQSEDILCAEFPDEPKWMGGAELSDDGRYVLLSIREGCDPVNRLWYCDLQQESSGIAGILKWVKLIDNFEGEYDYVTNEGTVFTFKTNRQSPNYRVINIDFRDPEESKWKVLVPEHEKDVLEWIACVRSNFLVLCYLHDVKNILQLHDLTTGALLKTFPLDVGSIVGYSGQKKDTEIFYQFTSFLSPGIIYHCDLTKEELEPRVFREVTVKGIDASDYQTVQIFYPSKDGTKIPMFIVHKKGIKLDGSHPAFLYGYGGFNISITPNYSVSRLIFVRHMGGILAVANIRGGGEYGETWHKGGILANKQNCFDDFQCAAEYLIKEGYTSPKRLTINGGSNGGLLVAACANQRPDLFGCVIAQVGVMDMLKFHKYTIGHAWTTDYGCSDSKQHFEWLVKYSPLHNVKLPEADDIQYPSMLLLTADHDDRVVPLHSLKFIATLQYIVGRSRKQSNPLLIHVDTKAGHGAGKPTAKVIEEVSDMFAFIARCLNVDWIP
The assay is described as follows: POP inhibition assay (Z-G-P-AMC substrate, fluorimetric). Type of assay: biochemical. The settings on record: hPOP 20 to 60 nM, 15 min preincubation, 1 hour at 37° C., pH 8.0. The protocol: POP was obtained by expression in E. coli and affinity purification using a His tail fusion according to a literature procedure (Tarragó T et al., Chem Bio Chem 2006; 7:827-33) summarized below:
hPOP expression: E. coli BL21 competent cells were transformed with pETM10 hPOP. To induce expression, a pre-culture of LB medium (50 mL) containing kanamycin (50 μg/mL) was inoculated with one colony and was grown overnight at 37° C. Next day, two cultures of LB medium (500 mL) were inoculated with the overnight culture (10 mL). The inoculated cultures were grown at 37° C. and 220 rpm until the OD595 was 1.2 (2.5-3 hours). […] The column was washed with suspension buffer until the absorbance at 280 nm returned to basal level. […] POP activity was checked in all fractions and positive ones were analyzed by SDS-PAGE and stained with Biosafe Comassie Stain G-250. […] Recombinant hPOP was quantified with the Bio-Rad Protein Assay with BSA as standard. […]
POP activity was determined following the method described by Toide et al (Toide K et al., J. Pharmacol. Exp. Ther. 1995; 274:1370-8), using Z-G-P-AMC (N-benzyloxycarbonyl-Gly-Pro-methylcoumarinyl-7-amide) as POP substrate. […]
Several concentration points (ranging from 25 μM to 400 μM) were measured for each compound. The inhibitory activity on prolyl oligopeptidase was calculated according to eq 1. […]

Regarding `N#C[C@@H]1CCCN1C(=O)[C@@H]1CC(F)(F)CN1C(=O)c1ccc(OCc2ccccc2)c(F)c1` [Comp Ex. 4, (S)-1-((S)-1-(4-(benzyloxy)-3-fluorobenzoyl)-4,4-difluoropyrrolidine-2-carbonyl) pyrrolidine-2-carbonitrile], the IC50 worked out at 365 nM.
With `N#C[C@@H]1CCCN1C(=O)[C@@H]1C[C@@H](F)CN1C(=O)c1cc(F)c(OCc2ccccc2)c(F)c1` [Example 1, (S)-1-((2S,4R)-1-(4-(benzyloxy)-3,5-difluorobenzoyl)-4-fluoropyrrolidine-2-carbonyl)pyrrolidine-2-carbonitrile], the IC50 turned out to be 45 nM.

One may read the IC50 as the concentration that inhibits the measured activity by half. A low value points to greater potency.
